Source: US20240139333A1, “2,6-DICHLOROPHENYL ESTER COMPOUNDS AND USE THEREOF” (Fusion Pharmaceuticals Inc., priority 2021, published 2024)

Experiments:
[1] = Active ester reactivity study with amino acids (Z-Arg-OH); details: Z-Arg-OH 1 eq., 22±2° C.
Procedure: General Experimental Protocol for Nucleophilic Reactivity Study with Amino Acids
(§1) To a 4 mL scintillation vial containing Compound A or C (1 eq.) was added a stir bar followed by 70 μL of HPLC grade acetonitrile. In another 4 mL scintillation vial containing a respective amino acid (1-5 eq.) was added 130 μL HPLC grade water followed by diisopropylethylamine (5 eq.). The solutions were combined and allowed to stir at room temperature (22±2° C.) for 4 hours. Timed aliquots at time (T)=15, 30, 60, 120 and 240 minutes were taken and analyzed by HPLC-MS using elution method 1 (Table 6).

[2] = DMSO stability study; format: physicochemical
Procedure: To a 4 mL scintillation vial containing Compound A-E (in respective experiments; 4 mg) was added a stir bar followed by 500 μL of anhydrous dimethyl sulfoxide and was allowed to stir at room temperature (22±2° C.) for 4 hours. Timed aliquots at time (T)=15, 30, 60, 120 and 240 minutes were taken, dissolved in water to achieve 2% DMSO composition and analyzed by HPLC-MS using elution method 1 (Table 5).

[3] = Competitive reactivity study between L-Lysine and HOPO nucleophile; details: L-Lysine 5 eq. / 1,2-HOPO 1 eq.
Procedure: (§2) General Experimental Protocol for Competitive Reactivity Study with L-Lysine and HOPO or HOA Nucleophiles
as §1, with “A” for “A or C”, “acetonitrile followed by a respective HOPO or HOA nucleophile (1 eq).” for “acetonitrile.”, “L-Lysine monohydrochloride (5” for “a respective amino acid (1-5”, “7)” for “6).”

[4] = Competitive reactivity study between L-Lysine and HOA nucleophile; details: L-Lysine 5 eq. / N-Hydroxy-N-methyl benzamide 1 eq
Procedure: as §2
as §1, with “A” for “A or C”, “acetonitrile followed by a respective HOPO or HOA nucleophile (1 eq).” for “acetonitrile.”, “L-Lysine monohydrochloride (5” for “a respective amino acid (1-5”, “7)” for “6).”

Compound	% Active Ester Remaining ([1]; 15 min) [%]	% Active Ester Remaining ([1]; 30 min) [%]	% Active Ester Remaining ([1]; 60 min) [%]	% Active Ester Remaining ([1]; 120 min) [%]	% Active Ester Remaining ([1]; 240 min) [%]	% Active Ester Remaining in DMSO at 22 ± 2° C. ([2]; 15 min) [%]	% Active Ester Remaining in DMSO at 22 ± 2° C. ([2]; 30 min) [%]	% Active Ester Remaining in DMSO at 22 ± 2° C. ([2]; 60 min) [%]	% Active Ester Remaining in DMSO at 22 ± 2° C. ([2]; 120 min) [%]	% Active Ester Remaining in DMSO at 22 ± 2° C. ([2]; 240 min) [%]	% Compound A Remaining ([3]; 15 min)	% Compound A Remaining ([3]; 30 min)	% Compound A Remaining ([3]; 60 min)	% Compound A Remaining ([3]; 120 min)	% Compound A Remaining ([3]; 240 min)	% Compound A Remaining ([4]; 15 min)	% Compound A Remaining ([4]; 30 min)	% Compound A Remaining ([4]; 60 min)	% Compound A Remaining ([4]; 120 min)
O=C(CCc1cccnc1)Oc1c(Cl)cccc1Cl [Compound A, 2,6-Dichlorophenyl-3-(pyridin-3-yl)propanoate]	94.23	90.34	86.74	78.45	73.31	100	99.95	99.81	99.75	99.60	(88.33) %	(74.52) %	(28.29) %	(2.01) %	(0) %	(65.77) %	(14.83) %	(1.63) %	(0) %
O=C(CCc1cccnc1)Oc1c(F)c(F)cc(F)c1F [Compound C, 2,3,5,6-Tetrafluorophenyl-3-(pyridin-3-yl)propanoate]	22.34	3.47	0.36	0	–	96.55	94.71	93.91	92.60	88.57	–	–	–	–	–	–	–	–	–
